Reference: ChEMBL document CHEMBL1201862, “PubChem BioAssay data set” (2004)
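Five compound concentrations were applied to cells in 96-well plates for 48 hours; endpoints were derived by simple linear interpolation of the resulting dose-response curve. Here, GI50 denotes the concentration required for 50% inhibition of growth.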 Active and inactive are the calls of the source. Rule as the data show it: active = GI50 up to about 1.1 µM and inactive = higher.

Tests used:
Experiment in all cases: inhibition of tumour cell growth, NCI panel, 48 h
[1] = tested on: MDA-MB-435
[2] = tested on: RPMI-8226
[3] = tested on: PC-3
[4] = tested on: BT-549
[5] = tested on: ACHN
[6] = tested on: EKVX
[7] = tested on: HT-29
[8] = tested on: SK-MEL-28
[9] = tested on: OVCAR-3
[10] = tested on: UO-31
[11] = tested on: COLO 205
[12] = tested on: MDA-N
[13] = tested on: HOP-62
[14] = tested on: DU-145
[15] = tested on: UACC-257
[16] = tested on: SF-295
[17] = tested on: NCI-H23
[18] = tested on: NCI/ADR-RES
[19] = tested on: Hs-578T
[20] = tested on: T47D
[21] = tested on: A498
[22] = tested on: MCF7
[23] = tested on: SF-539
[24] = tested on: UACC-62
[25] = tested on: OVCAR-4
[26] = tested on: U-251
[27] = tested on: K562
[28] = tested on: SN12C
[29] = tested on: OVCAR-8
[30] = tested on: SR
[31] = tested on: SK-OV-3
[32] = tested on: HL-60
[33] = tested on: TK-10
[34] = tested on: SF-268
[35] = tested on: LOX IMVI
[36] = tested on: SK-MEL-2
[37] = tested on: MOLT-4
[38] = tested on: HOP-92
[39] = tested on: Malme-3M
[40] = tested on: IGROV-1
[41] = tested on: CCRF-CEM
[42] = tested on: NCI-H226
[43] = tested on: SK-MEL-5
[44] = tested on: SW-620
[45] = tested on: HCT-116
[46] = tested on: NCI-H460
[47] = tested on: OVCAR-5
[48] = tested on: CAKI-1
[49] = tested on: RXF 393
[50] = tested on: HCT-15
[51] = tested on: SNB-19
[52] = tested on: A549
[53] = tested on: MDA-MB-231
[54] = tested on: M14

With `COc1cc(-c2cc(=O)c3c(O)c(CC=C(C)C)c(O)cc3o2)ccc1O` the GI50 [1] was 9.1 µM (inactive), the GI50 [2] was 11.7 µM (inactive) and the GI50 [3] was 16.7 µM (inactive). The GI50 [4] was 21.6 µM (inactive), the GI50 [5] was 19.1 µM (inactive) and the GI50 [6] was 7.29 µM (inactive). The GI50 [7] was > 50 µM (inactive), the GI50 [8] was 1.17 µM (inactive) and the GI50 [9] was 14.9 µM (inactive). The GI50 [10] was 33.5 µM (inactive), the GI50 [11] was > 50 µM (inactive) and the GI50 [12] was 8.49 µM (inactive). For the same molecule, the GI50 [13] was 24.2 µM (inactive), the GI50 [14] was 32.9 µM (inactive) and the GI50 [15] was > 50 µM (inactive). The GI50 [16] was 12 µM (inactive), the GI50 [17] was > 50 µM (inactive) and the GI50 [18] was 16 µM (inactive). For the same molecule, the GI50 [19] was 29.5 µM (inactive), the GI50 [20] was 9.77 µM (inactive) and the GI50 [21] was > 50 µM (inactive). The GI50 [22] was 25.1 µM (inactive), the GI50 [23] was 16.9 µM (inactive) and the GI50 [24] was 23 µM (inactive). The GI50 [25] was 15.8 µM (inactive), the GI50 [26] was 24.1 µM (inactive) and the GI50 [27] was 16.7 µM (inactive). The GI50 [28] was > 50 µM (inactive), the GI50 [29] was 26.7 µM (inactive) and the GI50 [30] was 14.7 µM (inactive). For the same molecule, the GI50 [31] was 32.3 µM (inactive), the GI50 [32] was > 50 µM (inactive) and the GI50 [33] was 23.4 µM (inactive). The GI50 [34] was 24.6 µM (inactive), the GI50 [35] was 19.1 µM (inactive) and the GI50 [36] was 23.6 µM (inactive). The GI50 [37] was 16.3 µM (inactive), the GI50 [38] was > 50 µM (inactive) and the GI50 [39] was 13.5 µM (inactive). For the same molecule, the GI50 [40] was 24 µM (inactive), the GI50 [41] was 16.8 µM (inactive) and the GI50 [42] was > 50 µM (inactive). The GI50 [43] was 14.6 µM (inactive), the GI50 [44] was 16.7 µM (inactive) and the GI50 [45] was 16.2 µM (inactive). For the same molecule, the GI50 [46] was 19.5 µM (inactive), the GI50 [47] was > 50 µM (inactive) and the GI50 [48] was 10 µM (inactive). For the same molecule, the GI50 [49] was 24.4 µM (inactive), the GI50 [50] was 15 µM and the GI50 [51] was > 50 µM (inactive). The GI50 [52] was 26 µM (inactive), the GI50 [53] was 43.5 µM (inactive) and the GI50 [54] was 12.4 µM (inactive).
